{"source": "paper PMC9831672", "about": "(Journal of the American Chemical Society, 2022)", "target": "NotF (Aspergillus sp. MF297-2, UniProt E0Y3X1)", "sequence (E0Y3X1 whole entry)": "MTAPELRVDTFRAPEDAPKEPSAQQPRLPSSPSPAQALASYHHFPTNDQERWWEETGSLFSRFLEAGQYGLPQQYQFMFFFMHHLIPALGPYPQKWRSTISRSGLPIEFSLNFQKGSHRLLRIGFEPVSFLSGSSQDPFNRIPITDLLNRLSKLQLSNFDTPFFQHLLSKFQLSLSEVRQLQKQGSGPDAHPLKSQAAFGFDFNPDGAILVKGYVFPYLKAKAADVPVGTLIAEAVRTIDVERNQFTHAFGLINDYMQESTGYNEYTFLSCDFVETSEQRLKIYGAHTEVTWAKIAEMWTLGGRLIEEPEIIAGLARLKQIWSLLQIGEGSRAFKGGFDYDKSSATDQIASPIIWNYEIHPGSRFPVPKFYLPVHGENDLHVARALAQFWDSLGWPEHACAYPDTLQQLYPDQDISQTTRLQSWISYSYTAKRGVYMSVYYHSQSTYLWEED", "type": "binding", "conditions": "ternary complex with brevianamide F; non-hydrolysable DMAPP analogue", "data": [{"smiles": "CC(C)=CCSP(=O)(O)OP(=O)(O)O", "note": "[dimethylallyl S-thiolodiphosphate]", "values": [{"measurement": "X-ray crystal structure (3.0 A), co-crystallisation", "value": "a non-hydrolysable DMAPP analog, dimethylallyl S-thiolodiphosphate (DMSPP), was determined"}]}]}
